Experiments:
[1] = test system: A549-Luc-BM1-implanted tibiae; assay: CD31 staining, microvessel density in bone lesion; format: in vivo, BALB/c nude mice; details: 2 weeks oral; TAS-115 100 mg/kg, cabozantinib 15, crizotinib 100, sunitinib 40 mg/kg; vs control
Experimental: (§1) On day 15, the mice were euthanized by cervical dislocation under isoflurane anesthesia, and their tibiae were collected. For CD31 staining, frozen sections (3 μm thick) were prepared using Kawamoto’s film method. Purified Rat Anti-Mouse CD31 (1:100, BD Pharmingen^TM) was detected using Simple Stain^TM Mouse MAX PO (Rat) (Nichirei) and 3,3’-diaminobenzidine (Dako, Glostrup, Denmark). For Ki-67 and TRAP staining, formalin-fixed paraffin-embedded sections (2 μm thick) were prepared. Anti-human Ki-67 Rabbit Monoclonal Antibody (1:50, Epitomics) was detected using the EnVisionTM^+ System (Dako). TRAP staining was performed using the TRAP/ALP Stain Kit (Wako Pure chemical Industries, Ltd.). To quantify each staining, whole slides were scanned under 20× magnification with the Aperio Scan-Scope XT Slide Scanner (Aperio Technologies, Inc., CA). To quantify CD31-positive microvessels as microvessel density (MVD, number/mm^2), four fields of tumor area per section excluding bone and necrotic tissue were analyzed by using Image-Pro Plus (Media Cybernetics, Inc., Carlsbad, CA). The mean values of the four areas were considered as the MVD of each animal. […] Ki-67-positive cells and total tumor cells were counted by using Image-Pro Plus. The Ki-67 index is expressed as a percentage (the number of Ki-67-positive tumor cells / the total number of the tumor cells × 100). The numbers of TRAP-positive osteoclasts were counted, and are expressed as the TRAP-positive osteoclast labeling index, (the number of TRAP-positive cells / the length of the boundary between tumor and trabecular bone (number/mm)). Cells that were TRAP-positive, had more than one nucleus, and were found on the surface of the bone, were identified as osteoclasts. The boundary length was calculated by Image-Pro Plus. All histopathological analyses were conducted in a blinded manner.

A549-Luc-BM1 cells = assay: Proliferation of A549-Luc-BM1 cells (CellTiter-Glo); format: cell-based; details: Homo sapiens, 72 hr post drug addition, read-out: 50% growth inhibitory concentration (GI50) for A549-Luc-BM1 cells
Experimental: Supplementary file pone.0164830.s002.tif: S2 Fig The effect of TAS-115 on the proliferation of A549-Luc-BM1 cells. A549-Luc-BM1 cells were seeded on 96 well plates at a density of 10^3 cells/well in RPMI1640 containing 10% FBS. […] At 72 hr post drug addition, cell viability was determined using CellTiter-Glo^TM. The 50% growth inhibition (GI50) values were determined using SAS version 9.2. (TIF) Click here for additional data file.

[2] = Body weight change in the bone disease model; format: in vivo, BALB/c nude mice; details: 4 weeks of treatment; TAS-115 200 mg/kg, crizotinib 100 mg/kg, sunitinib 40 mg/kg with crizotinib 100 mg/kg, oral once daily
Experimental: Changes in body weight (BW) during the dosing period were determined using body weight change (BWC; %) as an indicator, which was calculated using the following formula: BWC; % = 100 × ((BW on each measurement day)–(BWday 0)) / (BWday 0). BWday 0 is the BW on the allocation day. The schedule for the in vivo study is depicted in the Supporting Information (S1 Fig).

[3] = test system: A549-Luc-BM1 cells in the mouse tibia; assay: Tumor-induced bone disease model, intra-tibial A549-Luc-BM1, bioluminescence imaging; format: in vivo, BALB/c nude mice; details: for tumor growth inhibition percentage (TGI): day 28, 4 weeks, oral once daily TAS-115 200 mg/kg, cabozantinib 15 mg/kg, sunitinib 40 mg/kg, crizotinib 100 mg/kg, ZA 0.2 mg/kg s.c. twice weekly
Experimental: Tumor growth in the tibiae was monitored by bioluminescence imaging using an IVIS Lumina II Imaging System (PerkinElmer, MA). […] Images were analyzed using the Living Image 3.1 software (PerkinElmer). Total photon flux (TP) was calculated by summation of the photon flux of ventral and right lateral images. One week post tumor implantation, 8–9 animals were allocated to each experimental group by a stratified randomization method with SAS version 9.2 (SAS Institute Japan, Tokyo, Japan) using TP as an allocation parameter, following which drug treatment was then started. […] The doses of each drug were selected based on the maximum tolerated dose (MTD) in in-house studies (data not shown). […] Zoledronic acid (ZA) was subcutaneously injected twice weekly for 4 weeks at a dose of 0.2 mg/kg, which was a previously reported efficacious dose. The allocation day was set as day 0, and drug administration was initiated from day 1. As an indicator of changes in tumor growth during the dosing period, relative total photon flux (RTP), was calculated according to the following formula: RTPday n = (TP on each measurement day) / (TPday 0) × 100. TPday 0 is the TP on the allocation day.

[4] = test system: A549-Luc-BM1-implanted tibia; assay: Bone morphometrical analyses by micro-CT; format: in vivo, BALB/c nude mice; details: for A549-Luc-BM1-induced changes in bone parameters (BV, TV, BMD, vBMD): micro-CT after 4 weeks dosing, TAS-115 200, cabozantinib 15, sunitinib 40, crizotinib 100 mg/kg oral, vs control
Experimental: On day 29, the mice were euthanized by cervical dislocation under isoflurane anesthesia, and subsequently the A549-Luc-BM1-implanted tibia was removed and was fixed in 4% paraformaldehyde solution. Micro-CT imaging was performed by using Rm_CT2 (Rigaku corporation, Tokyo, Japan) with the following parameters: 90 kV, 160 μA, 3 min exposure, 10 mm field of view (20 μm voxel size). After scanning, 3D reconstruction was performed to produce a series of cross-sectional images by using specific software (3D Viewer Version 3.00.01, Rigaku corporation). In addition, bone mineral density (BMD) and 3D morphometrical primary parameters, including total volume (TV) and bone volume (BV), were calculated by using bone microstructure software (TRI/3D-BON-FCS64, Ratoc System Engineering, Tokyo, Japan). Volumetric BMD (vBMD), which has been reported to be a good index of osteoporosis, was calculated from primary parameters using the following formula: vBMD = BMD × BV / TV.

[5] = test system: FMS, ERK1/2 and AKT phosphorylation in MDBMs; assay: In vitro MDBM signaling, M-CSF-stimulated FMS phosphorylation; format: cell-based, mouse; details: Western blotting, cabozantinib, crizotinib at 0.3 μM, sunitinib positive control compared with TAS-115
Experimental: For analysis of the expression and phosphorylation levels of FMS, MET and VEGFR2, MDBMs were cultured with hM-CSF (20000 U/mL) for 4 days (400000 cells/dish in Suspension Culture Dishes (Corning Inc., NY). The phosphorylation levels of FMS and downstream signaling molecules were then analyzed in these MDBMs following incubation for 1 hr with test compounds at the indicated concentration. The phosphorylation of MET or VEGFR2 was analyzed in these MDBMs following stimulation with rhHGF (100 ng/mL, 10 min) or rhVEGF (100 ng/mL, 5 min), respectively. After incubation, the MDBMs were harvested, the cells were lysed and target signaling proteins were detected by immunoblotting. For analysis of VEGFR2 and its phosphorylated form, the lysate was immunoprecipiated with an anti-VEGFR antibody prior to immunoblotting.

[6] = test system: M-CSF dependent bone marrow macrophages (MDBMs); assay: In vitro osteoclast differentiation assay (TRAP activity); format: cell-based, mouse; details: MDBMs with hM-CSF and rhsRANKL for 4 days
Experimental: To prepare macrophage colony-stimulating factor (M-CSF) dependent bone marrow macrophages (MDBMs), bone marrow cells were obtained from the femurs of male BALB/c mice (CLEA Japan) and adherent cells were cultured with human M-CSF (hM-CSF; 10000 U/mL) for 6 days. MDBMs were collected and cultured with hM-CSF (10000 U/mL) and recombinant human soluble RANKL (rhsRANKL)-GST (5 nM) for 4 days (25000 cells/well in a 96 well flat plate) for induction of differentiation into osteoclasts. Test compounds were then added to the culture media at the indicated concentration. TRAP activities were measured using the commercially available TRACP and ALP Assay Kit (TAKARA BIO INC).

[7] = biological target: T1, Recombinant human FMS dephosphorylated with lambda phosphatase (dephospho-rhFMS) (Homo sapiens, UniProt P07333); assay: In vitro kinase assay, recombinant dephospho-FMS (LANCE Ultra TR-FRET); format: biochemical; details: 100 μM ATP
T1 sequence (P07333 538-972): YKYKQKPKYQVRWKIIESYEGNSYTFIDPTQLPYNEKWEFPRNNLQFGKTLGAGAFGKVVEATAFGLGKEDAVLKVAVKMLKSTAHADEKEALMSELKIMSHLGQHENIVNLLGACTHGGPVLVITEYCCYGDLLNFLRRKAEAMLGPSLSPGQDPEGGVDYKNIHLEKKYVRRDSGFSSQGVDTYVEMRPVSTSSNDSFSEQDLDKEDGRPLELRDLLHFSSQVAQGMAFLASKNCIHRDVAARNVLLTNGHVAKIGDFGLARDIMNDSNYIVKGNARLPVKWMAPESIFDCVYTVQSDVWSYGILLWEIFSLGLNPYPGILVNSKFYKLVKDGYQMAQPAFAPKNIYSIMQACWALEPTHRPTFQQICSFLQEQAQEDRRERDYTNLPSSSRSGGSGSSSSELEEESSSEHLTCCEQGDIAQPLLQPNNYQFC
Experimental: Enzyme inhibition studies were performed using LANCE® Ultra TR-FRET assay technology. Briefly, 0.03 μg/mL dephospho-rhFMS and 100 nM ULightTM-poly GT (4:1) (PerkinElmer) were mixed and incubated for 40 min at 25°C in 10 μL of reaction mixture containing 100 μM ATP, 15 mM tris (hydroxymethyl) aminomethane (Tris (pH 7.5)), 0.01% (v/v) Tween 20, 5 mM MgCl2, 2 mM dithiothreitol and various concentrations of the test compound. […] By referring to the TR-FRET signals of positive (no inhibitor) and negative (EDTA was added before the reaction was started) control wells, the percent inhibition of each well was calculated and the half-maximal inhibitory concentration (IC50) value was determined using a four-parameter sigmoidal equation. The assay of MET and VEGFR2 kinase activity was performed as described previously.

[8] = test system: TRAP-positive osteoclasts at tumor-bone boundary; assay: TRAP staining of A549-Luc-BM1-implanted tibiae, osteoclast number; format: in vivo, BALB/c nude mice; details: 2 weeks oral; TAS-115 200, cabozantinib 15, sunitinib 40, crizotinib 100 mg/kg, combination; vs control
Experimental: as §1, with “CA).” for “CA). The mean values of the four areas were considered as the MVD of each animal.”, “The numbers of TRAP-positive osteoclasts were counted, and are expressed as the TRAP-positive osteoclast labeling index, (the number of TRAP-positive cells / the length of the boundary between tumor and trabecular bone (number/mm)). Cells that were TRAP-positive, had more than one nucleus, and were found on the surface of the bone, were identified as osteoclasts.” left out, “All histopathological analyses were conducted in a blinded manner.” left out

Structure (SMILES)	microvessel density (MVD) within the tumor area in the bone lesion [1]	GI50 (A549-Luc-BM1 cells) [nM]	effect on body weight [2]	effect on tumor growth in the tibia (bioluminescence) ([3]; crizotinib 100 mg/kg oral once daily for 4 weeks)	A549-Luc-BM1-induced changes in bone parameters (BV, TV, BMD, vBMD) [4]	inhibition of M-CSF-stimulated phosphorylation of FMS, ERK1/2 and AKT (in words) [5]	concentration that potently inhibited / markedly affected RANKL and M-CSF-induced mouse osteoclast formation [6] [µM]	tumor growth inhibition percentage (TGI) [3] [%]	total volume (TV) compared with the control group ([4]; micro-CT, ZA 0.2 mg/kg s.c. twice weekly for 4 weeks)	BMD, BV, and vBMD compared with control ([4]; micro-CT, ZA 0.2 mg/kg s.c. twice weekly for 4 weeks, each value higher than normal group)	IC50 [7] [nM]	number of TRAP-positive osteoclasts at tumor-bone boundary [8]
C[C@@H](Oc1cc(-c2cnn(C3CCNCC3)c2)cnc1N)c1c(Cl)ccc(F)c1Cl [Crizotinib]	did not affect	1100	did suppress body weight gain	did not impact on tumor growth at all	did not affect any changes in the parameters	moderate	1					
O=P(O)(O)C(O)(Cn1ccnc1)P(=O)(O)O [ZA, zoledronic acid]								27	significantly decreased	significantly increased		
COc1cc2nccc(Oc3ccc(NC(=O)C4(C(=O)Nc5ccc(F)cc5)CC4)cc3)c2cc1OC [Cabozantinib]	significantly reduced				significantly suppressed all of the changes	moderate		73			79	did not affect
CCN(CC)CCNC(=O)c1c(C)[nH]c(/C=C2\C(=O)Nc3ccc(F)cc32)c1C [Sunitinib]	significantly reduced				significantly inhibited A549-Luc-BM1-induced changes in BV and TV, but not in BMD or vBMD	comparable		75				

— paper PMC5063576, “High Potency VEGFRs/MET/FMS Triple Blockade by TAS-115 Concomitantly Suppresses Tumor Progression and Bone Destruction in Tumor-Induced Bone Disease Model with Lung Carcinoma Cells” (PLoS ONE, 2016)
